From patent publication US11071720B2, “Cancer therapy” (UCL Business Ltd, priority 2016, dated 2021)

Tests used:
[1] = target: T1, MLL-AF6 (Homo sapiens, UniProt P55196+Q03164); assay: Western blot analysis of MLL-fusion protein proteolysis in MLL-AF6 positive cell line SHI-I; type: cell-based; conditions: SHI-I cells
T1 construct: AF6 (AFDN, P55196) portion as fusion partner; host or cells: SHI-I (SHI-1) human leukaemic cell line
Protocol: (§1) Human leukaemic cell lines (DSMZ) were cultured in Roswell Park Memorial Institute (RPMI) medium (Invitrogen), supplemented with 10% heat-inactivated FCS, 100 U/ml Penicillin (Invitrogen), 100 μg/ml Streptomycin (Invitrogen) and 2 mM L-glutamine (Invitrogen) (complete RPMI), or in Iscove's Modified Dulbecco's Medium (IMDM) (Invitrogen) supplemented with 20% heat-inactivated FCS, 100 U/ml Penicillin (Invitrogen), 100 μg/ml Streptomycin (Invitrogen) and 2 mM L-glutamine (Invitrogen)(complete IMDM).
(§2) SHI-I (MLL-AF6), THP-I (MLL-AF9) and MV4-11 (MLL-AF4) cell lines were treated with 300 nM of Disulfiram (Aldrich) or concentrations indicated and 1 μM of Copper chloride (Acros Organics) unless indicated otherwise for 16 hours.
(§3) Cells were lysed in Sample Reducing Buffer (200 mM DTT, 2% sodium dodecyl sulphate (SDS), 10% v/v Glycerol, 0.02% v/v Bromophenol Blue, 125 mM Tris HCl pH 6.8). The lysates were incubated for 5 minutes at 100° C., vortexed for 10 seconds and centrifuged at 13,200 rpm for 10 minutes at 4° C. The total cell lysate was then collected and stored at −20° C. or loaded immediately onto a polyacrylamide gel.
The whole cell lysate was electrophoresed in 7% Bis-Tris polyacrylamide gel and transferred to a odyssey nitrocellulose membrane (LI-COR).
After blocked for 1 hr for non-specific binding in PBS-T with 5% of non-fat milk, blots were incubated with primary antibodies (MLL, mouse monoclonal 1:2000, Millipore; Vinculin, rabbit monoclonal 1:10000, Abcam) overnight at 4° C., followed by secondary IRDye conjugated antibodies (mouse IEDye800CW 1:10000; rabbit IRDye680RD 1:10000, LI-COR) at room temperature.
Blots were visualized using the Odyssey CLx.
SHI-I (MLL-AF6), and THP-I (MLL-AF9) cell lines were treated with 300 nM of Diethyldithiocarbamate (Aldrich) and 1 μM of Copper chloride (Acros Organics) unless indicated otherwise for 16 hours.
SHI-I (MLL-AF6) cell line was treated with 100 nM or 75 nm of Disulfiram (Aldrich) and 100 nM of Auranofin or 10 μM of Curcumin supplemented with 1 μM of Copper chloride (Acros Organics) for 16 hours.

[2] = target: T2, MLL-AF9 (Homo sapiens, UniProt P42568+Q03164); assay: Western blot analysis of MLL-fusion protein proteolysis in MLL-AF9 cells (V6MA.3, THP-1); type: cell-based
T2 construct: AF9 (MLLT3, P42568) portion as fusion partner; host or cells: THP-1 (endogenous fusion); V6MA.3 (MLL-AF9 immortalised cord blood)
T2 sequence (Q03164 1147-1203 limits assumed, one chain of several): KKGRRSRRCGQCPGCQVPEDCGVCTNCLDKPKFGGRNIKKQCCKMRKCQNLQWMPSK
Protocol: as §1, §2, §3
The whole cell lysate was electrophoresed in 7% Bis-Tris polyacrylamide gel and transferred to a odyssey nitrocellulose membrane (LI-COR). […]

[3] = system: MLL rearranged cells; assay: Methylcellulose colony formation assay; type: cell-based, human; conditions: 300 nM disulfiram; MLL rearranged cells vs other leukemic cell lines and CD34+ cord blood
Protocol: FIGS. 6A and 6B show, as explained in Example 1: in FIG. 6A, relative CFU corresponding to colony formation in MLL rearranged cells, other leukemic cell lines and CD34+ cord blood, in a methylcellulose colony formation assay after treatment of the cells with 300 nM disulfiram (equal numbers of cells were plated and normalised CFU frequency is shown, with error bars representing standard deviation); and, in FIG. 6B, the corresponding treated and control plates themselves.

[4] = system: MLL-AF9 and MLL-AF4 profiles; assay: Gene Set Enrichment Analysis of treated SHI-I cells; type: cell-based, human; conditions: 16 hrs in the presence of copper
Protocol: as §2

[5] = system: HOXA9/HOXA10 and MEIS1; assay: RT-qPCR analysis of MLL target gene expression in SHI-I cells; type: cell-based, human; conditions: 16 hrs of treatment
Protocol: as §2

[6] = system: MLL fusion proteins; assay: Western blot, proteolysis of MLL fusion proteins (effect of copper; primary patient sample); type: cell-based, human
[7] = system: H3K4me3; assay: Western blot analysis of H3K4me3 in MLL rearranged cell lines; type: cell-based, human; conditions: various MLL rearranged cell lines, 16 hrs in the presence of copper
[8] = 16 hrs treatment in the presence of copper

T1 sequence (Q03164 1146-1214 limits assumed, one chain of several): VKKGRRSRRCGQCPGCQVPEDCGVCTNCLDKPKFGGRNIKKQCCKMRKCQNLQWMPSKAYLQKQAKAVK

SMILES	proteolysis of the MLL-fusion protein (Western blot) [1, 8]	proteolysis of the MLL-fusion protein (Western blot) ([2]; MLL-AF9 positive cell line THP-1, 16 hrs treatment in the presence of copper)	proteolysis of the MLL-fusion protein (Western blot) ([1]; 16 hrs, in the presence of copper, with or without thioredoxin reductase inhibitors Auranofin and Curcumin)	relative CFU corresponding to colony formation [3]	Gene Set Enrichment Analysis versus published MLL-AF9 and MLL-AF4 profiles [4]	proteolysis of the MLL-fusion protein (Western blot) ([2]; MLL-AF9 immortalised cord blood V6MA.3, 16 hrs treatment in the presence of copper)	MLL target gene expression level of HOXA9/HOXA10 and MEIS1, normalised to 18S (RT-qPCR) [5]	proteolysis of the MLL-fusion protein (Western blot) [6]	H3K4me3 level (Western blot) [7]
CCN(CC)C(=S)S [diethyldithiocarbamate, Diethyldithiocarbamic acid]	showing proteolysis of the MLL-fusion protein	showing proteolysis of the MLL-fusion protein	–	–	–	–	–	–	–
CCN(CC)C(=S)SSC(=S)N(CC)CC [disulfiram]	showing proteolysis of the MLL-fusion protein	–	showing proteolysis of the MLL-fusion protein	substantially higher effect than in other (non-MLL) leukemic cell lines and CD34+ cord blood	negative enrichment to both published MLL-AF9 and MLL-AF4 profiles	showing proteolysis of the MLL-fusion protein	efficient down-regulation of the target genes	showing proteolysis of the MLL-fusion protein in a primary patient sample	showing a decrease in H3K4me3
